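Cells were grown in 96-well plates and exposed to each compound for 48 hours at five concentrations; endpoints were interpolated linearly between bracketing concentrations, or set to the highest concentration if not reached. GI50 marks 50% less growth. TGI: concentration producing complete growth inhibition.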
Legend:
Assay in all cases: NCI tumour cell line growth inhibition, 48 h
[1] = system: OVCAR-4 ovarian
[2] = system: K-562 leukemia
[3] = system: M14 melanoma
[4] = system: UACC-257 melanoma
[5] = system: HS 578T breast
[6] = system: NCI-H23 lung
[7] = system: SK-MEL-28 melanoma
[8] = system: IGROV1 ovarian
[9] = system: HT29 colon
[10] = system: HOP-62 NSCLC

SMILES | GI50 [1] [µM] | TGI [1] [µM] | GI50 [2] [µM] | TGI [2] [µM] | GI50 [3] [µM] | TGI [3] [µM] | GI50 [4] [µM] | TGI [4] [µM] | GI50 [5] [µM] | TGI [5] [µM] | GI50 [6] [µM] | TGI [6] [µM] | GI50 [7] [µM] | TGI [7] [µM] | GI50 [8] [µM] | TGI [8] [µM] | GI50 [9] [µM] | TGI [9] [µM] | GI50 [10] [µM] | TGI [10] [µM]
CCOc1ccc2cc(-c3nn(CC4CCN(C)CC4)c4ncnc(N)c34)ccc2c1 | 12.9 | 29.7 | 11.6 | 27.7 | 15.8 | 32.5 | 14.7 | 30.2 | 11.1 | 33.7 | 15.1 | 41.6 | 3.12 | 10.1 | 11.2 | 31.4 | 7.01 | 27.3 | – | –
Cc1nc(C(=O)OCc2ccccc2)cc(OCc2ccccc2)c1C | 11.8 | 33.6 | 8.8 | 36.8 | 19.8 | 40.3 | 18.8 | 38.3 | 18.6 | 47.9 | 15.3 | 36.8 | 15.5 | 29.8 | 21.4 | 47.7 | 13.1 | 29.3 | 19.9 | 40.7
CCCCC[C@H]1C/C=C2/C(=O)C=C[C@@H]2C/C=C\CCCC(=O)O1 | 0.189 | 5.94 | 0.136 | 22 | 0.163 | 5.1 | 0.105 | 0.346 | 0.403 | 16.8 | 0.16 | 0.713 | 0.155 | 0.705 | 0.209 | 1.43 | 0.128 | 0.278 | 0.129 | 0.341
CCN(CC)c1ccc(/C=N/N=C(N)N)cc1 | 5.74 | 39.5 | 3.02 | 16.4 | 4 | 17 | 5.2 | 23.9 | 3.68 | 26.5 | 4.59 | 50.6 | 6.27 | 20.3 | 8.11 | 55.1 | 3.24 | 10.8 | 4.65 | 21.3
Fc1ccc(-c2ncn(C3CCNCC3)c2-c2ccnc(Oc3ccc(Cl)cc3)n2)cc1 | 4.15 | 9.69 | 4.7 | 11.2 | 4.65 | 9.09 | – | – | 2.58 | > 11.3 | – | – | 4.17 | 7.85 | 4.62 | 13.3 | 3.25 | 6.68 | 3.7 | 7.46
N#C/C(=C/C=C/c1cccc(Cl)c1)S(=O)c1ccccc1 (configuration not stated) | 0.266 | 1.16 | 0.301 | 13.2 | 1.1 | 2.89 | 1.64 | 3.16 | 1.68 | 33.4 | 0.42 | 1.74 | 1.23 | 2.68 | 0.399 | 1.71 | – | – | 0.326 | 1.13
